# Source: the supplement of paper PMC10307832
# Columns and labels:
# Assay in all cases: relative viability (nuclei count vs DMSO), 5 days (fraction); higher = more cells survive
# NCI-H661 = system: NCI-H661
# Method in brief: (§1)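 Relative viability was taken as the ratio of nuclei in treated wells to nuclei in vehicle wells. Lung cancer cell lines in 1536-well plates received compounds by pin tool one day after seeding, either one drug alone or a fixed anchor-drug dose plus five library-drug doses (not always all listed) in √10 steps. Nuclei were counted on 4× images after 5 days of treatment, and values are medians of duplicate plates.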
# NCI-H1355 = system: NCI-H1355
# Method in brief: as §1
# NCI-H460 = system: NCI-H460
# Method in brief: as §1
# PC-14 = system: PC-14
# Method in brief: as §1
# RERF-LC-KJ = system: RERF-LC-KJ
# Method in brief: as §1
# NCI-H596 = system: NCI-H596
# Method in brief: as §1
# NCI-H1755 = system: NCI-H1755
# Method in brief: as §1
# LXF-289 = system: LXF-289
# Method in brief: as §1
# NCI-H2170 = system: NCI-H2170
# Method in brief: as §1
# NCI-H1651 = system: NCI-H1651
# Method in brief: as §1
# NCI-H727 = system: NCI-H727
# Method in brief: as §1
smiles,measurement,setting,value
Clc1ccc(Nc2nnc(Cc3ccncc3)c3ccccc23)cc1 [Vatalanib] + C[C@@H](Oc1cc(-c2cnn(C3CCNCC3)c2)cnc1N)c1c(Cl)ccc(F)c1Cl [Crizotinib] (partner 1 µM),relative viability,NCI-H661; first compound 0.04 µM,1.03
same,relative viability,NCI-H661; first compound 0.4 µM,0.986
same,relative viability,NCI-H661; first compound 1.265 µM,0.885
same,relative viability,NCI-H661; first compound 4 µM,0.872
same,relative viability,NCI-H1355; first compound 0.04 µM,1.05
same,relative viability,NCI-H1355; first compound 0.1265 µM,1.08
same,relative viability,NCI-H1355; first compound 0.4 µM,1.13
same,relative viability,NCI-H1355; first compound 1.265 µM,0.886
same,relative viability,NCI-H1355; first compound 4 µM,0.953
same,relative viability,NCI-H460; first compound 0.04 µM,0.878
same,relative viability,NCI-H460; first compound 0.1265 µM,0.827
same,relative viability,NCI-H460; first compound 0.4 µM,1.21
same,relative viability,NCI-H460; first compound 1.265 µM,0.748
same,relative viability,NCI-H460; first compound 4 µM,0.856
same,relative viability,PC-14; first compound 0.04 µM,0.976
same,relative viability,PC-14; first compound 0.1265 µM,0.916
same,relative viability,PC-14; first compound 0.4 µM,0.956
same,relative viability,PC-14; first compound 1.265 µM,0.825
same,relative viability,PC-14; first compound 4 µM,0.865
same,relative viability,RERF-LC-KJ; first compound 0.04 µM,0.881
same,relative viability,RERF-LC-KJ; first compound 0.1265 µM,0.766
same,relative viability,RERF-LC-KJ; first compound 0.4 µM,0.88
same,relative viability,RERF-LC-KJ; first compound 1.265 µM,0.792
same,relative viability,RERF-LC-KJ; first compound 4 µM,0.799
same,relative viability,NCI-H596; first compound 0.04 µM,1.05
same,relative viability,NCI-H596; first compound 0.1265 µM,1.02
same,relative viability,NCI-H596; first compound 0.4 µM,0.884
same,relative viability,NCI-H596; first compound 1.265 µM,0.955
same,relative viability,NCI-H596; first compound 4 µM,1.16
same,relative viability,NCI-H1755; first compound 0.04 µM,0.886
same,relative viability,NCI-H1755; first compound 0.1265 µM,0.821
same,relative viability,NCI-H1755; first compound 0.4 µM,0.942
same,relative viability,NCI-H1755; first compound 1.265 µM,0.802
same,relative viability,NCI-H1755; first compound 4 µM,0.773
same,relative viability,LXF-289; first compound 0.04 µM,0.665
same,relative viability,LXF-289; first compound 0.1265 µM,0.743
same,relative viability,LXF-289; first compound 0.4 µM,0.807
same,relative viability,LXF-289; first compound 1.265 µM,0.717
same,relative viability,LXF-289; first compound 4 µM,0.78
same,relative viability,NCI-H2170; first compound 0.04 µM,1.22
same,relative viability,NCI-H2170; first compound 0.1265 µM,1.21
same,relative viability,NCI-H2170; first compound 0.4 µM,1.18
same,relative viability,NCI-H2170; first compound 1.265 µM,1.06
same,relative viability,NCI-H2170; first compound 4 µM,1.04
same,relative viability,NCI-H1651; first compound 0.04 µM,0.865
same,relative viability,NCI-H1651; first compound 0.1265 µM,0.839
same,relative viability,NCI-H1651; first compound 0.4 µM,0.858
same,relative viability,NCI-H1651; first compound 1.265 µM,0.86
same,relative viability,NCI-H1651; first compound 4 µM,0.925
same,relative viability,NCI-H727; first compound 0.04 µM,0.689
same,relative viability,NCI-H727; first compound 0.1265 µM,0.603
same,relative viability,NCI-H727; first compound 0.4 µM,0.992
same,relative viability,NCI-H727; first compound 1.265 µM,0.693
same,relative viability,NCI-H727; first compound 4 µM,0.654
